Patent US20090221989A1, “SYSTEM AND METHOD FOR THE PREVENTION AND TREATMENT OF BACTERIAL AND FUNGAL INFECTIONS INCLUDING URINARY TRACT INFECTIONS (UTI) USING A HYPOHALOUS ACID COMPOSITION” (Novabay Pharmaceuticals Inc, priority 2005, published 2009)

Key:
[1] = system: Escherichia coli ATCC 25922 biofilm; assay: Biofilm disinfection on 1-cm Foley catheter pieces, plate count; format: cell-based; settings: HOCl 2 mM in 0.9% saline pH 3.5, 48 h biofilm
Description: (§1) We have devised a dynamic in vitro model using traditional microbiological methods to assess the antimicrobial efficacy of 2 mM HOCl in 0.9% saline at pH 3.5, as compared to physiological saline in disinfecting intra-luminal and extra-luminal indwelling Foley catheter.
(§2) Foley Catheter, manufactured by BARD HOCl (2 mM) in 0.9% saline pH 3.5 (150 mM) Escherichia coli ATCC 25922 Proteus mirabilis ATCC 29245
(§3) Neutralizer Broth: A broth containing dextrose, lecithin, sodium thiosulfate, pancreatic digest of casein, Tween® 80, yeast extract, sodium bisulfate, sodium thioglycollate, monopotassium phosphate, and bromcresol purple.
(§4) The ability of HOCl to destroy biofilm formation was evaluated as follows. First, biofilm was established on 1-cm-long pieces of catheter for 48 hours in nutrient broth in the presence of either Proteus mirabilis or Escherichia coli. Subsequently, the biofilm-bearing pieces of catheter were exposed to 2 mM HOCl in 0.9% saline at pH 3.5 over various periods of time. After the exposures the pieces of catheter were transferred into 1 mL of neutralizer broth to stop the reaction. 0.1 mL (10%) of the neutralizer broth was then plated out onto nutrient agar and the number of colonies was counted. The CFU (Colony Forming Unit) values obtained were multiplied by 10 to obtain the actual CFU/mL values per treated sample.

[2] = system: Proteus mirabilis ATCC 29245 biofilm; assay: as above; format: cell-based; settings: HOCl 2 mM in 0.9% saline pH 3.5, 48 h biofilm
Description: as §1, §2, §3, §4

[3] = system: E. coli and Pr. mirabilis biofilm; assay: Biofilm disinfection on Foley catheter pieces, both organisms pooled: re-culture OD600, overall CFU, visual examination; format: cell-based, Escherichia coli; Proteus mirabilis; settings: HOCl 2 mM in 0.9% saline pH 3.5
Description: as §4, with “sample. In order to measure the amount of live bacteria left on the pieces of catheter following treatment, the biofilm-bearing pieces of catheter were transferred into tubes containing fresh growth medium. After allowing growth in a shaker at 37° C. for 4 hours, Optical Density (OD) was read at 600 nm. […] This was also shown by very low optical density readings (average of 0.057 OD600 units, individual data not listed) following the attempt to re-culture the bacteria from treated catheters.” for “sample.”

[4] = system: urease positive Escherichia coli ATCC 25922 biofilm; assay: Biofilm eradication in in vitro urinary catheter flow model; format: cell-based; settings: for Log (CFU/cm2) / Log reduction: pH 4, 0.9% NaCl; for Log (CFU/cm2): 3-day biofilm, 10 min flow + 30 min stationary, average of 9 treatments; for Log reduction: versus saline
Description: A test system was established which utilized size 14 Foley catheters (supplied by NovaCal), which were cut and installed into a pre-sterilized flow system (FIG. 1) using aseptic techniques. The system consists of five parallel channels, one channel per catheter. Sterile medium was supplied to the system via a flow-break, to prevent back-growth into the medium reservoir. The entire system was placed in a 37° C. incubator. After conditioning the system with artificial urine medium for 30 minutes, 2.0 ml inoculum from an overnight culture of urease positive Escherichia coli ATCC 25922 grown in artificial urine medium at 37° C. was introduced into the system via the valve closest to the flow break (bladder side of catheter). Each inoculum was tested to confirm urease production. After inoculation, the system remained under static conditions (no flow) for two hours, to allow for bacterial attachment to the catheters. Flow of artificial urine medium was then initiated and maintained at a rate of 0.75 ml/min for 3 days. Initial experiments were conducted to evaluate consistency of biofilm formation in the model system. […] Day 5 and Day 7 counts remained at approximately that level. It was decided that treatment would be performed on Day 3 to prevent the possibility of biofilm detachment occurring. […] Sterile sections of tubing were attached from the syringe to the valve furthest from the flow break (bag end of the catheter). This end is designated as FRONT for sampling purposes. The pump was turned on and the treatments were introduced at 2.0 ml/min for 10 minutes through the catheters. Excess medium and treatment solution was captured in a waste container. After 10 minutes, the syringe pump was turned off and the solutions were left stationary in the catheters for 30 minutes. The solutions were then withdrawn back through the catheter into the syringe, medium flow was resumed for a 30 minute rinse time and the catheters were then sampled. For efficient sampling: Each catheter was divided into 3 segments (front, middle, end) and each segment was subsampled. One subsample was used to determine bacterial populations by plate count, another subsample was analyzed by staining with the LIVE/DEAD® BaclightTM bacterial viability kit ([…], Molecular Probes, Oregon, USA) using confocal laser microscopy (CSLM), the third sample was imaged using scanning electron microscopy (SEM). For viable cell counts, a 3.0 centimeter section of tubing was removed and scraped with a sterile stainless steel rod (using aseptic technique) into a tube containing 10.0 ml of sterile phosphate-buffered saline (PBS). The tubes were then sonicated for two minutes and the suspension was vortexed for one minute. The number of viable (culturable) bacteria was enumerated by serial dilution in PBS and plate counts using the spread-plate technique. Results were expressed as CFU/cm^2 and are calculated as follows: The surface area of the internal lumen of the catheter section scraped was determined to be 2.826 cm^2. Three treatment runs were performed on 3 catheters each. One treated with PBS or sterile 0.9% saline as control, one treated with 2 mM HOCl and one treated with 20 mM HOCl. The Log (CFU/cm^2) was calculated from the average of 9 treatments, consisting of 3 treatments of 3 catheter pieces for each Test Article.

[5] = system: urease positive Escherichia coli ATCC 25922 biofilm; assay: Biofilm prevention in in vitro urinary catheter flow model; format: cell-based
Description: Day 0: The test system, as described in detail above, utilized size 14 Foley catheters, cut and installed into a pre-sterilized flow system using aseptic techniques. Sterile medium was supplied to the system via a flow-break, to prevent back-growth into the medium reservoir. The entire system was placed into a 37 AC incubator. After conditioning the system with artificial urine medium for 30 minutes, each catheter was treated with a disinfectant. 20.0 ml of each treatment solution was loaded into 30 ml syringes and connected to a syringe pump. Sterile sections of tubing were attached from the syringe to the valve furthest from the flow break (bag end of the catheter). This end is designated as FRONT for sampling purposes. The pump was turned on and the treatments were introduced at 2.0 ml/min for 10 minutes through the catheters. Excess medium and treatment solution was captured in a waste container. After 10 minutes, the syringe pump was turned off and the solutions were left stationary in the catheters for 30 minutes. The solutions were then withdrawn back through the catheter into the syringe. The catheters were then rinsed with sterile medium for 30 minutes. On Day 0 only: An inoculum from an overnight culture of urease positive Escherichia coli ATCC 25922 grown in artificial urine medium at 37° C. was introduced into the system via the valve closest to the flow break (bladder side of catheter). Each inoculum was tested for confirmation of urease production. After inoculation, the system remained under static conditions (no flow) for two hours, to allow for bacterial attachment to the catheters. Flow of artificial urine medium was then initiated and maintained at a rate of 0.75 ml/min. Days 1, 3 and 5: For viable cell counts, a 3.0 centimeter section of tubing was removed and scraped with a sterile stainless steel rod (using aseptic technique) into a tube containing 10.0 ml of sterile PBS. The tubes were then sonicated for two minutes and the suspension was vortexed for one minute. The number of viable (culturable) bacteria was enumerated by serial dilution in PBS and plate counts using the spread-plate technique. Results are expressed as CFU/cm^2 and were calculated as described in Phase One. Days 1 and 3: After sampling, the catheters were disinfected and rinsed with sterile medium as described above. Days 2 and 4: the catheters were disinfected and rinsed with sterile medium as described above. No samples were taken. Day 5: Samples were taken for imaging and both ends of the catheter were sampled for viable cell count data.

[6] = system: viable (culturable) bacteria on patient catheter; assay: Ex-vivo treatment of a patient Foley catheter, viable plate counts; format: cell-based
Excerpt: A Foley catheter was removed from a patient by hospital personnel and placed in a sterile bag. In the Bozeman Deaconess Hospital (BDH) lab, the outside of the catheter was wiped down with 70% ethanol. Then the catheter was aseptically cut into 3 catheter portions (bag-end, middle and patient-end). Each portion was cut into 3.0 cm long sections using a ruler and razor blades.
Three of the sections (one bag-end, one middle and one patient-end) designated as control were placed into sterile PBS. Three of the sections (one bag-end, one middle and one patient-end) were placed in 20 mM HOCl. All catheter sections were treated for 30 minutes individually in sterile glass tubes, each with sufficient solution to be immersed completely. After treatment, each 3 cm section was removed from the treatment tubes and the PBS control tubes and placed into a second glass tube containing sterile PBS for a 2 minute rinse in order to remove the treatment solution. The section was then removed from the tube and aseptically cut into 1.0 cm and 2.0 cm pieces. The 2.0 cm piece was placed in a tube containing 10 ml of sterile PBS, vortexed, sonicated and diluted for viable plate counts. The number of viable (culturable) bacteria was enumerated by serial dilution in PBS and plate counts using the spread-plate technique. Samples were plated on blood agar plates. Results will be expressed as colony-forming units/cm^2, CFU/cm^2 (calculated as 2.0 cm length×0.25 cm (radius)×3.14 (pi)=1.57 cm^2). The 1.0 cm piece was placed in 4% formaldehyde solution.

[7] = HOCl 20 mM, pH 4, 0.9% NaCl, 30 minutes immersion

## OCl [HOCl, hypochlorous acid]
[1]; exposure 5 min
  CFU/mL: 460 CFU/mL
[1]; exposure 10 min
  CFU/mL: 0 CFU/mL
[1]; exposure 20 min
  CFU/mL: 0 CFU/mL
[1]; exposure 30 min
  CFU/mL: 0 CFU/mL
[1]; exposure 45 min
  CFU/mL: 0 CFU/mL
[1]; exposure 60 min
  CFU/mL: 0 CFU/mL
[1]; exposure 120 min
  CFU/mL: 0 CFU/mL
[1]; exposure <1 min
  CFU/mL: 50 CFU/mL
[2]; exposure 5 min
  CFU/mL: 110 CFU/mL
[2]; exposure 10 min
  CFU/mL: 40 CFU/mL
[2]; exposure 20 min
  CFU/mL: 50 CFU/mL
[2]; exposure 30 min
  CFU/mL: 0 CFU/mL
[2]; exposure 45 min
  CFU/mL: 20 CFU/mL
[2]; exposure 60 min
  CFU/mL: 0 CFU/mL
[2]; exposure 120 min
  CFU/mL: 90 CFU/mL
[2]; exposure <1 min
  CFU/mL: >>3000 CFU/mL
[3]
  visual examination of biofilm on catheter surface: subsequent removal
[3]; 4 h growth at 37° C. in fresh medium, average, individual data not listed
  optical density readings after re-culture of treated catheters (average): 0.057 OD600 units
[3]; catheters infected 48 hours
  recoverable CFU/mL bacteria: minimal recoverable CFU/mL bacteria
[4]; HOCl 2 mM
  Log (CFU/cm2): 4.8 Log (CFU/cm2)
  Log reduction: −4.3
[4]; HOCl 20 mM versus 2 mM
  bacterial removal, higher versus lower concentration: significantly more bacterial removal than the lower concentration
[4]; HOCl 20 mM
  Log (CFU/cm2): 2.5 Log (CFU/cm2)
  Log reduction: −6.6
[4]; HOCl at 2 mM and 20 mM
  bacterial counts and presence of biofilm (visual interpretation from images): significantly reduced bacterial counts and the presence of biofilm
[5]; 5 day duration, 20 mM
  inhibition of biofilm formation: appeared to inhibit biofilm formation
[5]; Day 1, daily treatment, HOCl 20 mM pH 4 0.9% NaCl, vinegar 1:3 in water, Neomycin 1 ml in 1000 ml saline
  viable cell count Day 1: 3.5 CFU/cm^2
[5]; Day 3, daily treatment, HOCl 20 mM pH 4 0.9% NaCl, vinegar 1:3 in water, Neomycin 1 ml in 1000 ml saline
  viable cell count Day 3: 0.0 CFU/cm^2
[5]; Day 5, bag end, daily treatment, HOCl 20 mM pH 4 0.9% NaCl, vinegar 1:3 in water, Neomycin 1 ml in 1000 ml saline
  viable cell count Day 5 “Front” (bag end): 0.0 CFU/cm^2
[5]; Day 5, bladder end, daily treatment, HOCl 20 mM pH 4 0.9% NaCl, vinegar 1:3 in water, Neomycin 1 ml in 1000 ml saline
  viable cell count Day 5 “End” (bladder end): 0.0 CFU/cm^2
[5]; especially by Day 5, 20 mM
  inhibition of biofilm formation compared to vinegar and Neosporin: significantly better at inhibiting biofilm formation
[6]; HOCl 20 mM versus sterile PBS, average of 3 pieces
  Log reduction: 2.4
[6]; [7]
  Average Log CFU/cm^2 on catheter section after treatment, Bag end: 0.50 Log CFU/cm^2
  Average Log CFU/cm^2 on catheter section after treatment, average 3 pieces: 0.53 Log CFU/cm^2
  Average Log CFU/cm^2 on catheter section after treatment, middle: 0.58 Log CFU/cm^2
  Average Log CFU/cm^2 on catheter section after treatment, patient end: 0.50 Log CFU/cm^2
